Data reported in US9289437B2, “Method for preparation of a controlled release system” (Cristal Delivery B.V., priority 2008, dated 2016).

Details: 6 hours after intravenous administration, B16F10 tumor-bearing mice

C[C@@H]1C[C@H]2[C@@H]3CCC4=CC(=O)C=C[C@]4(C)[C@@]3(F)[C@@H](O)C[C@]2(C)[C@@]1(O)C(=O)CO [free dexamethasone, dexamethasone]
fraction still residing in the blood stream: 0.3%
